Data published in patent publication US9688637B2, “3-amidobenzamides and uses thereof for increasing cellular levels of A3G and other A3 family members” (Northwestern University, priority 2014, dated 2017).

Key:
A3G-Luc = A3G-Luc luciferase screen in 293T cells stably expressing A3G-Luc; type: cell-based, human; conditions: 10 μM, 48 hrs, DMSO = 100%
Excerpt: This background led to construction of cell lines to use in a search for compounds that might boost levels of A3s in the HIV target cells of the majority of HIV-infected persons who are non-controllers. The goal is to test a strategy of using such a booster in acute/early infection to prevent the hypothesized decrease of A3G and related A3s in an effort to increase “control” in persons lacking HLA B57/27-associated control. […] 293T and TZM-bl cells were maintained in DMEM (containing 4.5 g/liter glucose, L-glutamine, and sodium pyruvate) medium plus 10% fetal bovine serum, 50 IU/ml penicillin, and 50 μg/ml streptomycin at 37° C. and 5% CO2 throughout the experiments. […]. After collecting viral supernatant, 293T cells were infected with viral particles harboring the A3G-Luc expressing vector and selected with puromycin (0.75 μg/ml) for three days. Ten single cell clones of stable cells were isolated and tested for expression of A3G-Luc protein by both immunoblotting using antibody against A3G and measuring luciferase activity. Expressions in cell lines used for subsequent experiments are depicted in FIG. 2, upper panel. The A3G-Luc fusion protein was sensitive to Vif-mediated degradation (FIG. 3). Similar cells lines stably expressing A3F were constructed with the same methods (not shown).
To screen compounds that can boost A3G levels, 293T cells (25,000 cells per well in 96-well plate) stably expressing A3G-Luc protein or A3G-Luc/Vif proteins were plated. […] After 48 hrs of incubation with compounds culture medium was removed from each well and replaced with 100 μl of Britelite Plus luciferase assay substrate (PerkinElmer). Following 5 min. of incubation at room temperature, 75 μl of each cell lysate was transferred to a 96-well OptiPlate 96 (PerkinElmer) and luminescence was measured in a VICTOR X2 Multilabel Reader (PerkinElmer). Relative activity of compounds for their boosting capability A3G-Luc activity was calculated by plotting DMSO-treated A3G-Luc or A3G-Luc/Vif cells as 100%. Cellular cytotoxicity was measured by counting number of cells after 48 hrs of incubation with compounds compared to DMSO treated cells.

A3G-Luc/Vif = A3G-Luc/Vif luciferase screen in 293T cells stably co-expressing A3G-Luc and HIV-1 Vif; type: cell-based, human; conditions: 10 μM, 48 hrs, DMSO = 100%
Experimental: FIG. 6. 293T cell clone #6 stably co-expressing A3G-Luciferase fusion protein together with HIV-1 Vif was used. Small molecule compounds were tested for their effects on stability of A3G and inhibition of Vif activity against A3G by measuring luciferase activity, relative to treatment with control DMSO only. The relative % luciferase activity was higher after treatment with NU compounds than DMSO.
[…]. After sorting, expression of both A3G-Luc and Vif was confirmed by immunoblotting using antibody against both A3G and Vif.
To screen compounds that can boost A3G levels, 293T cells (25,000 cells per well in 96-well plate) stably expressing A3G-Luc protein or A3G-Luc/Vif proteins were plated. After 24 hrs post plating culture medium was replaced with 100 μl of new medium containing either DMSO as a control or various compounds (10 μM concentration). After 48 hrs of incubation with compounds culture medium was removed from each well and replaced with 100 μl of Britelite Plus luciferase assay substrate (PerkinElmer). Following 5 min. of incubation at room temperature, 75 μl of each cell lysate was transferred to a 96-well OptiPlate 96 (PerkinElmer) and luminescence was measured in a VICTOR X2 Multilabel Reader (PerkinElmer). Relative activity of compounds for their boosting capability A3G-Luc activity was calculated by plotting DMSO-treated A3G-Luc or A3G-Luc/Vif cells as 100%. Cellular cytotoxicity was measured by counting number of cells after 48 hrs of incubation with compounds compared to DMSO treated cells.

Wild-type HIV-1 = experiment: A3G-mediated restriction of wild-type HIV-1; virus from 293T stably expressing A3G, TZM-bl readout; type: cell-based; conditions: Human immunodeficiency virus 1, HEK-293T, read-out: A3G-mediated Restriction by Compounds on Wild-type HIV-1 (% of HIV replication relative to DMSO treated Control)
Experimental: To test the effect of compounds shown to boost A3G-Luc levels in our screening systems on inhibition of wild-type HIV-1 replication by A3G or A3F, 293T cell lines stably expressing A3G or A3F were plated (750,000 cells per well in 6-well plate). At 24 hrs post plating, 1.5 μg of a wild-type (Vif-positive) HIV-1 proviral vector, NL4.3, was transfected into the 293T stable cell lines expressing either A3G or A3F. At 4 hrs post transfection, either DMSO as a control or an individual compound from series described below was added into the culture medium at a 10 μM concentration. At 1 day post transfection, supernatant fluids containing viral particles were filtered through […] filter to remove cellular debris. To test the effect of compound on HIV-1 replication, TZM-bl indicator cells were plated at a density of 10,000 cells/well in a 96 well culture plate 24 hrs prior to infection. TZM-bl indicator cells express luciferase gene under the control of HIV LTR promoter and are routinely used to measure HIV-1 replication capability. On the day of infection, the culture medium was removed and the cells inoculated with equal amount of HIV-1 particles in triplicate with 100 μl of viral supernatants in culture medium containing 20 μg/ml DEAE-dextran. After 24 hrs of incubation, culture medium was removed from each well and replaced with 100 μl of Britelite Plus luciferase assay substrate. Following 5 min. of incubation at room temperature, 75 μl of each cell lysate was transferred to a 96-well OptiPlate 96 and luminescence was measured in a VICTOR X2 Multilabel Reader as described above. Relative infectivity was calculated by plotting luciferase activity from viral particle from DMSO treated A3G or A3F cell lines as 100%. We only tested effect A3F- or A3G mediated restriction of HIV-1 replication by compounds boosting luciferase activity by more than 160% compared to DMSO control sample.

SMILES | A3G-Luc Activity (% of Relative Light Units compared to DMSO treated control) (A3G-Luc) [%] | Vif-A3G-Luc Activity (% of RLUs compared to DMSO treated control) (A3G-Luc/Vif) [%] | activity at 10 µM (Wild-type HIV-1) [%]
COc1ccc(C(=O)Nc2ccncc2)cc1NC(=O)C(C)C [NU-565] | 66 | 55 | –
COc1ccc(C(=O)Nc2ccc(F)c(F)c2)cc1NC(=O)C(C)C [NU-571] | 116 | 104 | –
COc1ccc(C(=O)Nc2ccc(Cl)c(Cl)c2)cc1NC(=O)c1cccnc1 [NU-307] | 102 | 91 | –
COc1ccc(C(=O)Nc2ccc(Cl)c(Cl)c2)cc1NC(=O)N1CCCCC1 [NU-473] | 110 | 84 | –
COc1ccc(C(=O)Nc2ccc(F)cc2)cc1NC(=O)C(C)C [NU-564] | 162 | 102 | 72
CCCCOc1ccc(C(=O)Nc2ccc(Cl)c(Cl)c2)cc1NC(=O)C1CCC1 [NU-614] | 96 | 99 | –
COc1ccc(C(=O)Nc2ccc(Cl)c(Cl)c2)cc1NC(=O)c1ccncc1 [NU-306] | 96 | 84 | –
COc1ccc(C(=O)Nc2ccc(Cl)c(Cl)c2)cc1NC(=O)c1ccc2c(c1)OCO2 [NU-303] | 90 | 71 | –
COc1ccc(C(=O)NC2CCCCC2)cc1NC(=O)C(C)C [NU-573] | 117 | 80 | –
O=C(CCCCC1SC[C@@H]2NC(=O)N[C@H]12)NCCOCCOc1ccc(C(=O)Nc2ccc(Cl)c(Cl)c2)cc1NC(=O)CC1CC1 (stereo partly shown) [NU-128] | 141 | – | 62
COc1ccc(C(=O)NCc2ccc(F)cc2)cc1NC(=O)C(C)C [NU-567] | 93 | 76 | –
COc1ccc(C(=O)Nc2ccc(Cl)c(Cl)c2)cc1NC(=O)OC(C)C [NU-461] | 124 | 70 | –
CCCCOc1ccc(C(=O)Nc2ccc(Cl)c(Cl)c2)cc1NC(=O)CC1CC1 [NU-615] | 102 | 105 | –
COc1ccc(C(=O)Nc2ccc(Cl)c(Cl)c2)cc1NC(=O)C1C2CC3CC(C2)CC1C3 (stereo not shown) [NU-459] | 106 | 69 | –
COc1ccc(C(=O)NCc2ccccc2)cc1NC(=O)C(C)C [NU-566] | 106 | 80 | –
COc1ccc(C(=O)Nc2ccc(Cl)c(Cl)c2)cc1NC(=O)CC1CCCC1 [NU-453] | 169 | 95 | –
COc1ccc(CNC(=O)c2ccc(OC)c(NC(=O)C(C)C)c2)cc1 [NU-568] | 96 | 87 | –

SMILES | A3G-Luc Activity (% of Relative Light Units compared to DMSO treated control) (A3G-Luc) [%] | Vif-A3G-Luc Activity (% of RLUs compared to DMSO treated control) (A3G-Luc/Vif) [%] | activity at 10 µM (Wild-type HIV-1) [%]
COc1ccc(C(=O)Nc2ccc(Cl)c(Cl)c2)cc1NS(=O)(=O)C1CCC1 [NU-470] | 100 | 85 | –
COc1ccc(C(=O)NCc2ccncc2)cc1NC(=O)C(C)C [NU-569] | 98 | 85 | –
COc1ccc(C(=O)Nc2ccc(Cl)c(Cl)c2)cc1NC(=O)C1CC1 [NU-304] | 124 | 138 | –
COc1ccc(C(=O)Nc2ccc3c(c2)OCO3)cc1NC(=O)C(C)C [NU-50] | 115 | 145 | –
CCC(C)C(=O)Nc1cc(C(=O)Nc2ccc(Cl)c(Cl)c2)ccc1OC (stereo not shown) [NU-456] | 148 | 113 | –
COc1ccc(C(=O)Nc2ccc(Cl)c(Cl)c2)cc1NC(=O)c1ccccc1 [NU-309] | 100 | 94 | –
COc1ccc(C(=O)Nc2ccc(Cl)c(Cl)c2)cc1NC(=O)CC(C)C [NU-452] | 140 | 110 | –
COc1ccc(C(=O)Nc2ccc(Cl)c(Cl)c2)cc1NC(=O)CC(C)(C)C [NU-474] | 105 | 71 | –
COc1ccc(C(=O)Nc2ccc(Cl)c(Cl)c2)cc1NC(=O)Cc1ccccc1 [NU-308] | 92 | 113 | –
COc1ccc(C(=O)Nc2ccc(Cl)c(Cl)c2)cc1NC(=O)C1CCOCC1 [NU-305] | 121 | 109 | –
COc1ccc(C(=O)Nc2ccc(Cl)c(Cl)c2)cc1NS(=O)(=O)C1CC1 [NU-469] | 100 | 82 | –
COc1ccc(C(=O)Nc2ccc(Cl)c(Cl)c2)cc1NC(=O)C1CCCC1 [NU-455] | 188 | 131 | –
COc1ccc(C(=O)N2CCc3ccccc3C2)cc1NC(=O)C(C)C [NU-570] | 96 | 87 | –
COc1ccc(C(=O)Nc2ccc(Cl)c(Cl)c2)cc1NC(=O)CC1CCCCC1 [NU-454] | 86 | 84 | –
COc1ccc(C(=O)Nc2ccc(OC)c(OC)c2)cc1NC(=O)C(C)C [NU-572] | 98 | 91 | –
CCC(C)(C)C(=O)Nc1cc(C(=O)Nc2ccc(Cl)c(Cl)c2)ccc1OC [NU-457] | 120 | 93 | –
